Assay results: US20200017496A1 (priority 2017, published 2020)
Where two headings read alike, the source gives them in different places.

Key:
Type in all cases: cell-based
[1] = test system: Proteus mirabilis (PMI) isolates; test: microbe, parasite or virus in culture; conditions: for MIC: Proteus mirabilis, ATB alone, read-out: MIC
Method: (§1) Method 2: MIC of Compounds Alone and Combined with Antibacterials Against Bacterial Isolates.
(§2) Compounds of the present invention were assessed against genotyped bacterial strains (Table 3, 4) alone or in combination with an antibacterial (Table 2). […] Log phase bacterial suspensions were adjusted to a final density of 5·10^5 CFU/mL in cation-adjusted Mueller-Hinton broth (ca-MHB; Becton-Dickinson and Company) and added to each well (98 μL). Microplates were incubated for 16-20 h at 35° C. in ambient air. The MIC of the compounds was defined as the lowest concentration of said compounds that prevented bacterial growth as read by visual inspection. The MIC of ATB at each compound concentration was defined as the lowest concentration of ATB that prevented bacterial growth as read by visual inspection.

[2] = test system: Morganella morganii (MMO) isolates; test: MIC of compounds alone and combined with antibacterials, broth microdilution (CLSI); conditions: for MIC: Morganella morganii, ATB alone, read-out: MIC
Method: as §1, §2

[3] = test system: Providencia stuartii (PST) isolates; test: as above
Method: as §1, §2

[4] = test system: Escherichia coli (ECO) isolates; test: as above
Method: as §1, §2

CC(C)(O/N=C(\C(=O)N[C@@H]1C(=O)N2C(C(=O)[O-])=C(C[n+]3ccccc3)CS[C@H]12)c1csc(N)n1)C(=O)O [CAZ, Ceftazidime]
MIC ATB in combination ([1]; PMI UFR82, AF1 @ 4 μg/mL): <=0.25 μg/mL | MIC ATB in combination ([1]; PMI UFR82, AF1 @ 8 μg/mL): <=0.25 μg/mL | MIC ATB in combination ([1]; PMI UFR120, AF1 @ 4 μg/mL): <=0.25 μg/mL | MIC ATB in combination ([1]; PMI UFR120, AF1 @ 8 μg/mL): <=0.25 μg/mL | MIC ATB in combination ([1]; PMI UFR121, AF1 @ 4 μg/mL): <=0.25 μg/mL | MIC ATB in combination ([1]; PMI UFR121, AF1 @ 8 μg/mL): <=0.25 μg/mL | MIC ATB in combination ([1]; PMI UFR122, AF1 @ 4 μg/mL): <=0.25 μg/mL | MIC ATB in combination ([1]; PMI UFR122, AF1 @ 8 μg/mL): <=0.25 μg/mL | MIC ATB in combination ([1]; PMI UFR123, AF1 @ 4 μg/mL): <=0.25 μg/mL | MIC ATB in combination ([1]; PMI UFR123, AF1 @ 8 μg/mL): <=0.25 μg/mL | MIC ATB in combination ([1]; PMI UFR124, AF1 @ 4 μg/mL): <=0.25 μg/mL | MIC ATB in combination ([1]; PMI UFR124, AF1 @ 8 μg/mL): <=0.25 μg/mL | MIC ATB in combination ([1]; PMI UFR125, AF1 @ 4 μg/mL): <=0.25 μg/mL | MIC ATB in combination ([1]; PMI UFR125, AF1 @ 8 μg/mL): <=0.25 μg/mL | MIC ATB in combination ([1]; PMI UFR126, AF1 @ 4 μg/mL): <=0.25 μg/mL | MIC ATB in combination ([1]; PMI UFR126, AF1 @ 8 μg/mL): <=0.25 μg/mL | MIC ATB in combination ([1]; PMI UFR127, AF1 @ 4 μg/mL): <=0.25 μg/mL | MIC ATB in combination ([1]; PMI UFR127, AF1 @ 8 μg/mL): <=0.25 μg/mL | MIC ATB in combination ([1]; PMI UFR129, AF1 @ 4 μg/mL): <=0.25 μg/mL | MIC ATB in combination ([1]; PMI UFR129, AF1 @ 8 μg/mL): <=0.25 μg/mL | MIC ATB in combination ([1]; PMI UFR130, AF1 @ 4 μg/mL): <=0.25 μg/mL | MIC ATB in combination ([1]; PMI UFR130, AF1 @ 8 μg/mL): <=0.25 μg/mL | MIC ATB in combination ([1]; PMI UFR237, AF1 @ 4 μg/mL): 0.5 µg/mL | MIC ATB in combination ([1]; PMI UFR237, AF1 @ 8 μg/mL): <=0.25 μg/mL | MIC ([1]; strain PMI UFR82 (CMY-2)): 4 µg/mL | MIC ([1]; strain PMI UFR120 (TEM-1, SHV-11, CTX-M-14)): ≤ 0.25 µg/mL | MIC ([1]; strain PMI UFR121 (TEM-1, TEM-52)): 16 µg/mL | MIC ([1]; strain PMI UFR122 (TEM-1, CTX-M-15)): 1 µg/mL | MIC ([1]; strain PMI UFR123 (CTX-M-1)): 2 µg/mL | MIC ([1]; strain PMI UFR124 (CTX-M-2)): 2 µg/mL | MIC ([1]; strain PMI UFR125 (CTX-M-71)): 2 µg/mL | MIC ([1]; strain PMI UFR130 (CMY-2)): 4 µg/mL | MIC ATB in combination ([2]; MMO 200321, AF1 @ 4 μg/mL): <=0.25 μg/mL | MIC ATB in combination ([2]; MMO UFR144, AF1 @ 4 μg/mL): <=0.25 μg/mL | MIC ATB in combination ([2]; MMO UFR144, AF1 @ 8 μg/mL): <=0.25 μg/mL | MIC ATB in combination ([2]; MMO UFR240, AF1 @ 4 μg/mL): <=0.25 μg/mL | MIC ATB in combination ([2]; MMO UFR240, AF1 @ 8 μg/mL): <=0.25 μg/mL | MIC ATB in combination ([2]; MMO UFR241, AF1 @ 4 μg/mL): <=0.25 μg/mL | MIC ATB in combination ([2]; MMO UFR241, AF1 @ 8 μg/mL): <=0.25 μg/mL | MIC ATB in combination ([2]; MMO UFR242, AF1 @ 4 μg/mL): 2 µg/mL | MIC ATB in combination ([2]; MMO UFR242, AF1 @ 8 μg/mL): 0.25 µg/mL | MIC ATB in combination ([2]; MMO UFR243, AF1 @ 4 μg/mL): <=0.25 μg/mL | MIC ATB in combination ([2]; MMO UFR243, AF1 @ 8 μg/mL): <=0.25 μg/mL | MIC ATB in combination ([2]; MMO UFR244, AF1 @ 4 μg/mL): <=0.25 μg/mL | MIC ATB in combination ([2]; MMO UFR244, AF1 @ 8 μg/mL): <=0.25 μg/mL | MIC ATB in combination ([2]; MMO UFR245, AF1 @ 4 μg/mL): <=0.25 μg/mL | MIC ATB in combination ([2]; MMO UFR245, AF1 @ 8 μg/mL): <=0.25 μg/mL | MIC ATB in combination ([2]; MMO UFR246, AF1 @ 4 μg/mL): <=0.25 μg/mL | MIC ATB in combination ([2]; MMO UFR246, AF1 @ 8 μg/mL): <=0.25 μg/mL | MIC ([2]; strain MMO 200321 (TEM-1, CTX-M-15, OXA-1)): 16 µg/mL | MIC ([2]; strain MMO UFR144 (TEM-1, CTX-M-15)): 8 µg/mL | MIC ([2]; strain MMO UFR241 (TEM-1, CTX-M-15)): 8 µg/mL | MIC ([2]; strain MMO UFR242 (TEM-52)): 32 µg/mL | MIC ([2]; strain MMO UFR243 (DHA-1)): 1 µg/mL | MIC ([2]; strain MMO UFR245 (DHA-1)): 8 µg/mL | MIC ([2]; strain MMO UFR246 (DHA-1)): 4 µg/mL | MIC ATB in combination ([3]; PST UFR94, AF1 @ 4 μg/mL): 0.5 µg/mL | MIC ATB in combination ([3]; PST UFR94, AF1 @ 8 μg/mL): <=0.25 μg/mL | MIC ATB in combination ([3]; PST UFR95, AF1 @ 4 μg/mL): 1 µg/mL | MIC ATB in combination ([3]; PST UFR95, AF1 @ 8 μg/mL): 0.5 µg/mL | MIC ATB in combination ([3]; PST UFR235, AF1 @ 4 μg/mL): 1 µg/mL | MIC ATB in combination ([3]; PST UFR235, AF1 @ 8 μg/mL): <=0.25 μg/mL | MIC ([3]; Providencia stuartii, strain PST UFR94 (CTX-M-14), ATB alone, read-out: MIC): 1 µg/mL | MIC ATB in combination ([4]; ECO 4133, AF1 @ 4 μg/mL): <=0.25 μg/mL | MIC ATB in combination ([4]; ECO 4133, AF1 @ 8 μg/mL): <=0.25 μg/mL | MIC ATB in combination ([4]; ECO 5302, AF1 @ 4 μg/mL): <=0.25 μg/mL | MIC ATB in combination ([4]; ECO 5302, AF1 @ 8 μg/mL): <=0.25 μg/mL | MIC ATB in combination ([4]; ECO 131119, AF1 @ 4 μg/mL): <=0.25 μg/mL | MIC ATB in combination ([4]; ECO 131119, AF1 @ 8 μg/mL): <=0.25 μg/mL | MIC ATB in combination ([4]; ECO 180070, AF1 @ 4 μg/mL): <=0.25 μg/mL | MIC ATB in combination ([4]; ECO 180070, AF1 @ 8 μg/mL): <=0.25 μg/mL | MIC ATB in combination ([4]; ECO 190314, AF1 @ 4 μg/mL): 0.5 µg/mL | MIC ATB in combination ([4]; ECO 190314, AF1 @ 8 μg/mL): <=0.25 μg/mL | MIC ATB in combination ([4]; ECO 190317, AF1 @ 8 μg/mL): <=0.25 μg/mL | MIC ATB in combination ([4]; ECO 190457, AF1 @ 4 μg/mL): <=0.25 μg/mL | MIC ATB in combination ([4]; ECO 190457, AF1 @ 8 μg/mL): <=0.25 μg/mL | MIC ATB in combination ([4]; ECO 190549, AF1 @ 4 μg/mL): <=0.25 μg/mL | MIC ATB in combination ([4]; ECO 190549, AF1 @ 8 μg/mL): <=0.25 μg/mL | MIC ATB in combination ([4]; ECO 200159, AF1 @ 4 μg/mL): <=0.25 μg/mL | MIC ATB in combination ([4]; ECO 200159, AF1 @ 8 μg/mL): <=0.25 μg/mL | MIC ATB in combination ([4]; ECO 200259, AF1 @ 4 μg/mL): <=0.25 μg/mL | MIC ATB in combination ([4]; ECO 200259, AF1 @ 8 μg/mL): <=0.25 μg/mL | MIC ATB in combination ([4]; ECO 200344, AF1 @ 4 μg/mL): <=0.25 μg/mL | MIC ATB in combination ([4]; ECO 200344, AF1 @ 8 μg/mL): <=0.25 μg/mL | MIC ATB in combination ([4]; ECO 260096, AF1 @ 4 μg/mL): <=0.25 μg/mL | MIC ATB in combination ([4]; ECO 260096, AF1 @ 8 μg/mL): <=0.25 μg/mL | MIC ATB in combination ([4]; ECO 260304, AF1 @ 4 μg/mL): <=0.25 μg/mL | MIC ATB in combination ([4]; ECO 260304, AF1 @ 8 μg/mL): <=0.25 μg/mL | MIC ATB in combination ([4]; ECO 260508, AF1 @ 4 μg/mL): <=0.25 μg/mL | MIC ATB in combination ([4]; ECO 260508, AF1 @ 8 μg/mL): <=0.25 μg/mL | MIC ATB in combination ([4]; ECO RGN238, AF1 @ 4 μg/mL): <=0.25 μg/mL | MIC ATB in combination ([4]; ECO RGN238, AF1 @ 8 μg/mL): <=0.25 μg/mL | MIC ATB in combination ([4]; ECO UFR15, AF1 @ 4 μg/mL): <=0.25 μg/mL | MIC ATB in combination ([4]; ECO UFR15, AF1 @ 8 μg/mL): <=0.25 μg/mL | MIC ATB in combination ([4]; ECO UFR16, AF1 @ 4 μg/mL): <=0.25 μg/mL | MIC ATB in combination ([4]; ECO UFR16, AF1 @ 8 μg/mL): <=0.25 μg/mL | MIC ATB in combination ([4]; ECO UFR17, AF1 @ 4 μg/mL): 16 µg/mL | MIC ATB in combination ([4]; ECO UFR17, AF1 @ 8 μg/mL): 2 µg/mL | MIC ATB in combination ([4]; ECO UFR18, AF1 @ 4 μg/mL): 1 µg/mL | MIC ATB in combination ([4]; ECO UFR18, AF1 @ 8 μg/mL): <=0.25 μg/mL | MIC ATB in combination ([4]; ECO UFR19, AF1 @ 4 μg/mL): 1 µg/mL | MIC ATB in combination ([4]; ECO UFR19, AF1 @ 8 μg/mL): <=0.25 μg/mL
